From patent publication US20260224716A1, “PTH ANALOGS FOR THE TREATMENT OF HYPOPARATHYROIDISM” (priority 2020, published 2026)
“And” between values parts separate entries of the source, which are not always exact repeats. Equal values may be shown once.

Tests used:
PTH1 receptor = molecular target: T1, PTH1 receptor (Homo sapiens, UniProt Q03431); assay: Luciferase-based reporter gene assay for cAMP detection (HEK293 cells); assay type: cell-based; conditions: FIG. 4; luciferase reporter of cAMP production
T1 construct: expressed in transfected cells; host or cells: HEK293
T1 sequence (Q03431 27-593): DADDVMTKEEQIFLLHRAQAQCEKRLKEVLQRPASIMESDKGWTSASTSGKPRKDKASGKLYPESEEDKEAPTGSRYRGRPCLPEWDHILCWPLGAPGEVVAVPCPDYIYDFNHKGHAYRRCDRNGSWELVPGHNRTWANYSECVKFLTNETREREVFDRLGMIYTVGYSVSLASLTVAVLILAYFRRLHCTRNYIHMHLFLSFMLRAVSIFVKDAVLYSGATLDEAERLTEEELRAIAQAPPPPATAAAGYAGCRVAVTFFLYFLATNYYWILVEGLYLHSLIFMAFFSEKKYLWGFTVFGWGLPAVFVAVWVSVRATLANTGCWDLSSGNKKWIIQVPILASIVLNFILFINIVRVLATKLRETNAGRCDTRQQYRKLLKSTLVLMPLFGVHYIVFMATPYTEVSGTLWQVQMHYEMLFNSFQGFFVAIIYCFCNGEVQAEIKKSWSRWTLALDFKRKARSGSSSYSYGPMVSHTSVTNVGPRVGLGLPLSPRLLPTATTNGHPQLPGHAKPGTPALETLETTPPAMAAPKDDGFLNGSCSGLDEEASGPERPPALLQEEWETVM
Experimental: At the end of the incubation, 50 μL of Steady-Lite Plus (PerkinElmer, Waltham, MA) were added to each well. The plate was shaken briefly, incubated four minutes and light output was measured on an EnSpire Alpha Multi-mode Plate Reader (PerkinElmer, Waltham, MA).

PTHR1 = molecular target: T2, PTHR1 (Homo sapiens, UniProt Q03431); assay: cAMP Hunter Teriparatide Bioassay (CHO-K1 PTHR1 cells); assay type: cell-based
T2 construct: host or cells: CHO-K1
T2 sequence (Q03431 27-593): T1 sequence (Q03431 27-593)
Experimental: The assessment of the bioactivity of a prodrug relative to its drug form was conducted in a proprietary commercial assay as contracted with Eurofins-Discover Rx Corporation win a cAMP Hunter® Teriparatide Bioassay (95-0118Y2). An 11-point dose curve in agonist mode was conducted for each individual peptide or incubation condition. Every sample was run at each dose in triplicate.
An 11-point dose curve in agonist mode was conducted for each individual peptide or incubation condition. Every sample was run at each dose in triplicate.
An 11-point dose curve in agonist mode was conducted for each individual peptide at each concentration. Every sample was run at each dose in triplicate.

serum calcium [1] = assay: Pharmacology in normal mice: serum calcium (Example 6); assay type: in vivo, C57Bl6/J mice; conditions: FIG. 5C, 20 or 40 nmol/kg SC, 24 and 48 hours
Experimental: Each group of mice was bled immediately before the injection and after 24 and 48 hours. Blood was centrifuges and serum was collected and stored at −20 C. Calcium concentrations were determined used commercially available assays following the manufacturer's instructions.

serum calcium [2] = assay: Serum calcium in mice after single subcutaneous SEQ ID NO: 77 (Example 9); assay type: in vivo, C57BL/6J mice; conditions: for Percent change of serum Ca levels: 24 hr vs 0 hr
Experimental: Absorbance (Ab) was measured at 650 nm wavelength. Manufacturer linearity is provided up to 15 mg/dl. […] This difference was statistically significant at 24 hours when accounting for the initial baseline levels (FIG. 14B). There was an increase in serum Ca at 24 hours following the dose of 40 nmol/kg.

serum calcium [3] = assay: Serum calcium in rats, repeat daily dosing 7 days (Example 13); assay type: in vivo, Sprague-Dawley rats; conditions: daily SC 7 days; SEQ ID NO: 77 20 nmol/kg, SEQ ID NO: 87 20 or 40 nmol/kg; returned to initial values after washout
Experimental: (§1) Female Sprague-Dawley rats were single or double-housed and randomly assigned to four groups (n=5-6 per group) as described in Table 20, and then weighed.
(§2) After the treatment ceased, the animals were monitored on days 9 and 11 (washout period).
(§3) Body weight and food intake were measured on days 0, 1, 3, 5 and 7. Ca was measured on days 0, 1, 2, 3, 4, 7, 9 and 11. Pi was determined on the same samples, except for days 9 and 11.

serum phosphate = assay: Serum phosphate in rats, repeat daily dosing 7 days (Example 13); assay type: in vivo, Sprague-Dawley rats; conditions: daily SC, SEQ ID NO: 77 20 nmol/kg
Experimental: as §1, §2, §3

[4] = Plasma drug levels in rats, repeat daily dosing 7 days, LCMS (Example 13); assay type: in vivo, Sprague-Dawley rats; conditions: daily SC dosing
Experimental: as §1, §2, §3

[5] = Pharmacokinetics of SEQ ID 87 in monkeys, single subcutaneous dose (Example 17); assay type: in vivo, cynomolgus monkeys
Experimental: A total of three monkeys were used at each test dose. The monkeys ranged in age from 2-4 years old at beginning of the study and having a weight of at least 2.5 kg. The dose volume was 0.3 mL/kg. Individual dose volumes were calculated based on the animals' most recently recorded body weight.
Animals were not fasted prior to collection. Blood was be collected via the femoral vein (or another appropriate site). Blood samples were maintained at 5±3° C. (wet ice or equivalent) and centrifuged at 5±3° C. within 1 hour of the collection of each blood sample. The resultant plasma was transferred to a tube and then stored under conditions set to maintain −75±15° C. until analysis.
Pharmacokinetic mean concentration-time data was analyzed using non-compartmental methods (Phoenix® WinNonlin® Version 7.0 or higher) based on the route of administration. The following parameters were calculated whenever possible and as data allows: Cmax, Tmax, and AUC. Descriptive statistics were generated using Phoenix WinNonlin.

[6] = Pharmacokinetics in rats after single subcutaneous dose, LCMS (Example 10)
Description: Female Sprague-Dawley rats were randomly distributed among four groups with five or six rats per group. […] Dose volume was based on body weight and recorded prior to dosing.

[7] = rats, SEQ ID NO: 77 30 nmol/kg SC
[8] = rats, after SEQ ID NO: 87 30 nmol/kg SC

In the case of `CC[C@H](C)[C@H](NC(=O)[C@H](CCC(=O)O)NC(=O)[C@H](CO)NC(=O)[C@@H](NC(=O)[C@@H](N)CO)C(C)C)C(=O)N[C@@H](CCC(N)=O)C(=O)N[C@@H](CC(C)C)C(=O)N[C@@H](CCSC)C(=O)N[C@@H](Cc1c[nH]cn1)C(=O)N[C@@H](CC(N)=O)C(=O)N[C@@H](CC(C)C)C(=O)NCC(=O)N[C@@H](CCCCN)C(=O)N[C@@H](Cc1c[nH]cn1)C(=O)N[C@@H](CC(C)C)C(=O)N[C@@H](CC(N)=O)C(=O)N[C@@H](CO)C(=O)N[C@@H](CCSC)C(=O)N[C@@H](CCC(=O)O)C(=O)N[C@@H](CCCNC(=N)N)C(=O)N[C@H](C(=O)N[C@@H](CCC(=O)O)C(=O)N[C@@H](Cc1c[nH]c2ccccc12)C(=O)N[C@@H](CC(C)C)C(=O)N[C@@H](CCCNC(=N)N)C(=O)N[C@@H](CCCCN)C(=O)N[C@@H](CCCCN)C(=O)N[C@@H](CC(C)C)C(=O)N[C@@H](CCC(N)=O)C(=O)N[C@@H](CC(=O)O)C(=O)N[C@H](C(=O)N[C@@H](Cc1c[nH]cn1)C(=O)N[C@@H](CCCCNC(=O)CC[C@H](NC(=O)COCCOCCNC(=O)COCCOCCNC(=O)CC[C@H](NC(=O)CCCCCCCCCCCCCCCCC(=O)O)C(=O)O)C(=O)O)C(=O)O)C(C)C)C(C)C` [SEQ ID NO: 77], the “potency at the PTH receptor” value (PTH1 receptor) is reported as “retains the high potency”, the EC50 (PTHR1; FIG. 11, active drug) is reported as 10 pM and the Hillslope (PTHR1; FIG. 11, active drug) is reported as 1.874. The EC50 (PTHR1; FIG. 12) was 36.6 pM, the Hillslope (PTHR1; FIG. 12) was 2.237 and the EC50 (PTHR1; FIG. 13A) was 10.7 pM. The Hillslope (PTHR1; FIG. 13A) was 2.687, the EC50 (PTHR1; FIG. 13B) was 19.3 pM and the Hillslope (PTHR1; FIG. 13B) was 2.687. For the same compound, the “PTH agonism” value (PTHR1; conclusions from Table 14, FIGS. 8A-8C) was “inactivates the PTH agonism”, the “effect on serum calcium levels” value (serum calcium [1]) was “increase serum calcium levels” and the “Percent change of serum Ca levels” value (serum calcium [2]; 20 nmol/kg SC) was 13.8%. The “Serum Ca change” value (serum calcium [2]; 20 nmol/kg SC, 24 hr vs 0 hr (nmol/ul)) was 0.3131, the “Serum Ca change” value (serum calcium [2]; 20 nmol/kg SC, 48 hr vs 0 hr) was 0.0709 and the “serum Ca levels compared to controls or 20 nmol/kg” value (serum calcium [2]; 40 nmol/kg SC, 24 and 48 hours post treatment) was “significantly increased serum Ca levels”. For the same compound, the “Percent change of serum Ca levels” value (serum calcium [2]; 40 nmol/kg SC) was 26.2%, the “Serum Ca change” value (serum calcium [2]; 40 nmol/kg SC, 24 hr vs 0 hr (nmol/uL)) was 0.631 and the “Serum Ca change” value (serum calcium [2]; 40 nmol/kg SC, 48 hr vs 0 hr) was 0.073. The “Serum Calcium Conc., individual mouse” value (serum calcium [2]; Group F (20 nmol/kg by match with Table 11), 0 hour) was 8.9502 mg/dl and 2.2375 nmol/uL and 8.8662 mg/dl and 2.2165 nmol/uL and 9.3810 mg/dl and 2.3453 nmol/uL and 9.3774 mg/dl and 2.3443 nmol/uL and 10.2136 mg/dl and 2.5534 nmol/uL and 9.6513 mg/dl and 2.4128 nmol/uL and 8.7165 mg/dl and 2.1791 nmol/uL and 7.4968 mg/dl and 1.8742 nmol/uL, the “Serum Calcium Conc., individual mouse” value (serum calcium [2]; Group F (20 nmol/kg by match with Table 11), 24 hours) was 9.1693 mg/dl and 2.2923 nmol/uL and 9.4988 mg/dl and 2.3747 nmol/uL and 9.8423 mg/dl and 2.4606 nmol/uL and 11.4721 mg/dl and 2.8680 nmol/uL and 10.9604 mg/dl and 2.7401 nmol/uL and 10.4767 mg/dl and 2.6192 nmol/uL and 9.1062 mg/dl and 2.2766 nmol/uL and 12.1451 mg/dl and 3.0363 nmol/uL and the “Serum Calcium Conc., individual mouse” value (serum calcium [2]; Group F (20 nmol/kg by match with Table 11), 48 hours) was 8.8303 mg/dl and 2.2076 nmol/uL and 9.1467 mg/dl and 2.2867 nmol/uL and 8.8431 mg/dl and 2.2108 nmol/uL and 7.3666 mg/dl and 1.8416 nmol/uL and 8.7057 mg/dl and 2.1764 nmol/uL and 9.7411 mg/dl and 2.4353 nmol/uL and 8.7472 mg/dl and 2.1868 nmol/uL and 9.0029 mg/dl and 2.2507 nmol/uL. For the same compound, the “Serum Calcium Conc., individual mouse” value (serum calcium [2]; Group G (40 nmol/kg by match with Table 11), 0 hour) was 9.4650 mg/dl and 2.3663 nmol/uL and 10.0310 mg/dl and 2.5078 nmol/uL and 9.9105 mg/dl and 2.4776 nmol/uL and 8.8662 mg/dl and 2.2165 nmol/uL and 10.1369 mg/dl and 2.5342 nmol/uL and 10.6007 mg/dl and 2.6502 nmol/uL and 9.6001 mg/dl and 2.4000 nmol/uL and 8.5266 mg/dl and 2.1316 nmol/uL, the “Serum Calcium Conc., individual mouse” value (serum calcium [2]; Group G (40 nmol/kg by match with Table 11), 24 hours) was 13.6768 mg/dl and 3.4192 nmol/uL and 11.5422 mg/dl and 2.8856 nmol/uL and 12.7305 mg/dl and 3.1826 nmol/uL and 11.5563 mg/dl and 2.8891 nmol/uL and 13.0880 mg/dl and 3.2720 nmol/uL and 11.5633 mg/dl and 2.8908 nmol/uL and 11.7070 mg/dl and 2.9267 nmol/uL and 11.4651 mg/dl and 2.8663 nmol/uL and the “Serum Calcium Conc., individual mouse” value (serum calcium [2]; Group G (40 nmol/kg by match with Table 11), 48 hours) was 10.2589 mg/dl and 2.5647 nmol/uL and 9.0764 mg/dl and 2.2691 nmol/uL and 10.0607 mg/dl and 2.5152 nmol/uL and 9.2554 mg/dl and 2.3138 nmol/uL and 9.9968 mg/dl and 2.4992 nmol/uL and 9.9425 mg/dl and 2.4856 nmol/uL and 10.6168 mg/dl and 2.6542 nmol/uL and 10.2429 mg/dl and 2.5607 nmol/uL. For the same compound, the “serum Ca at 48 hours post treatment” value (serum calcium [2]; all treatments, 20 or 40 nmol/kg SC) was “returned to near starting levels”, the “Serum Ca levels during the treatment period” value (serum calcium [3]) was “gradually increased” and the “serum Pi on day 3 versus vehicle and SEQ ID NO: 87 40 nmol/kg” value (serum phosphate) was “differed significantly”. The “daily administrations to reach steady state plasma levels” value [4] was “four”, the “time of peak concentration of drug formed from prodrug” value ([5]; after SEQ ID No 87 2.5, 3.75, 5 nmol/kg SC) was 48 to 72 h and the “concentration as fraction of the Cmax concentration” value ([5]; drug formed from prodrug, at one week) was “approximately ⅔”. For the same compound, the level at time molar at 2 h ([6]; female, Sprague-Dawley, rat, serum, sc, 30 nmol/kg) was > 100 nM, the “time at baseline level” value [6, 7] was 96 h and the “time of peak concentration” value [6, 7] was “seven”. For the same compound, the “concentration as fraction of the Cmax” value ([6]; rats, SEQ ID NO: 77 30 nmol/kg SC, at 48 h) was “⅓”, the “time of peak of drug formed from prodrug” value [6, 8] was 24 h and the “time of return to baseline, drug formed from prodrug” value [6, 8] was “one week”.
